Reference: ChEMBL document CHEMBL5500360, “Discovery of N-(4-((6-(3,5- Dimethoxyphenyl)-9H-purine derivatives as irreversible covalent FGFR inhibitors” (Eur J Med Chem, 2024)
Calls of active or inactive are those of the source. The calls are words filed in the database; no cut-off is given here.

Tests used:
MDA-MB-231 [1] = assay: Cell cycle arrest in human MDA-MB-231 cells assessed as accumulation of G0-G1 phase cells at 10 uM incubated for 24 hrs by […]PI staining based flow cytometric analysis (reference value: 41.83%); format: functional
MDA-MB-231 [2] = assay: Cell cycle arrest in human MDA-MB-231 cells assessed as accumulation of S phase cells at 10 uM incubated for 24 hrs by […]PI staining based flow cytometric analysis (reference value: 41.29%); format: functional
MDA-MB-231 [3] = assay: Induction of apoptosis in human MDA-MB-231 cells assessed as early apoptotic cells at 2.5 uM incubated for 24 hrs by Annexin V-FITC/PI staining based flow cytometric analysis (reference value: 0.131 %); format: functional
MDA-MB-231 [4] = assay: Induction of apoptosis in human MDA-MB-231 cells assessed as viable cells at 5 uM incubated for 24 hrs by Annexin V-FITC/PI staining based flow cytometric analysis (reference value: 99.645%); format: functional; conditions: read-out: Activity
MDA-MB-231 [5] = assay: Induction of apoptosis in human MDA-MB-231 cells assessed as late apoptotic cells at 5 uM incubated for 24 hrs by Annexin V-FITC/PI staining based flow cytometric analysis (reference value: 0.161 %); format: functional
MDA-MB-231 [6] = assay: Induction of apoptosis in human MDA-MB-231 cells assessed as necrotic cells at 5 uM incubated for 24 hrs by Annexin V-FITC/PI staining based flow cytometric analysis (reference value: 0.063 %); format: functional
MDA-MB-231 [7] = assay: Induction of apoptosis in human MDA-MB-231 cells assessed as viable cells at 10 uM incubated for 24 hrs by Annexin V-FITC/PI staining based flow cytometric analysis (reference value: 99.645%); format: functional; conditions: read-out: Activity
MDA-MB-231 [8] = assay: Induction of apoptosis in human MDA-MB-231 cells assessed as late apoptotic cells at 10 uM incubated for 24 hrs by Annexin V-FITC/PI staining based flow cytometric analysis (reference value: 0.161 %); format: functional
MDA-MB-231 [9] = assay: Induction of apoptosis in human MDA-MB-231 cells assessed as necrotic cells at 10 uM incubated for 24 hrs by Annexin V-FITC/PI staining based flow cytometric analysis (reference value: 0.063 %); format: functional
MDA-MB-231 [10] = assay: Induction of apoptosis in human MDA-MB-231 cells assessed as apoptotic cells at 5 uM incubated for 24 hrs by Annexin V-FITC/PI staining based flow cytometric analysis relative to control; format: functional
MDA-MB-231 [11] = assay: Inhibition of cell migration in human MDA-MB-231 cells at 5 uM incubated for 12 hrs by cell scratch assay relative to control; format: functional
MDA-MB-231 [12] = assay: Induction of ROS production in human MDA-MB-231 cells incubated for 12 hrs by flow cytometry based confocal microscopic analysis; format: functional, cell-based; conditions: dose 2.5-10 µM
MDA-MB-231 [13] = assay: Induction of apoptosis in human MDA-MB-231 cells assessed as increase in cleaved-PARP protein expression incubated for 24 hrs by Western blot analysis; format: functional, cell-based; conditions: dose 2.5-10 µM
MDA-MB-231 [14] = assay: Effect on FGFR1 protein expression in human MDA-MB-231 cells at 5 to 10 uM incubated for 24 hrs by Western blot analysis; format: functional, cell-based; conditions: dose 5-10 µM
[15] = Metabolic stability in human liver microsomes assessed as parent compound remaining at 1 uM measured after 15 mins by LC-MS/MS analysis; format: ADME, Microsome; conditions: read-out: Stability
[16] = Metabolic stability in human liver microsomes assessed as parent compound remaining at 1 uM measured after 45 mins by LC-MS/MS analysis; format: ADME, Microsome; conditions: read-out: Stability
[17] = Metabolic stability in rat liver microsomes assessed as parent compound remaining at 1 uM measured after 30 mins by LC-MS/MS analysis; format: ADME, Microsome; conditions: read-out: Stability
[18] = Metabolic stability in rat liver microsomes assessed as parent compound remaining at 1 uM measured after 45 mins by LC-MS/MS analysis; format: ADME, Microsome; conditions: read-out: Stability
[19] = Metabolic stability in mouse liver microsomes assessed as parent compound remaining at 1 uM measured after 15 mins by LC-MS/MS analysis; format: ADME, Microsome; conditions: read-out: Stability
[20] = Metabolic stability in mouse liver microsomes assessed as parent compound remaining at 1 uM measured after 30 mins by LC-MS/MS analysis; format: ADME, Microsome; conditions: read-out: Stability
[21] = Metabolic stability in human liver microsomes assessed as half-life at 1 uM incubated for 45 mins by LC-MS/MS analysis; format: ADME, Microsome
[22] = Metabolic stability in human liver microsomes assessed as intrinsic clearance at 1 uM incubated for 45 mins by LC-MS/MS analysis; format: ADME, Microsome; conditions: read-out: CLH
[23] = Metabolic stability in rat liver microsomes assessed as half-life at 1 uM incubated for 45 mins by LC-MS/MS analysis; format: ADME, Microsome
[24] = Metabolic stability in mouse liver microsomes assessed as half-life at 1 uM incubated for 45 mins by LC-MS/MS analysis; format: ADME, Microsome
[25] = Metabolic stability in mouse liver microsomes assessed as intrinsic clearance at 1 uM incubated for 45 mins by LC-MS/MS analysis; format: ADME, Microsome; conditions: read-out: CLH
[26] = Toxicity in BALB/c athymic nude mouse xenografted with human MDA-MB-231 cells assessed as effect on liver at 10 to 30 mg/kg, po administered once a day via gavage for 21 days by H and E staining based analysis; format: organism-based; conditions: in vivo, 504 h, dose 10-30 mg/kg, time 21 day
[27] = Toxicity in BALB/c athymic nude mouse xenografted with human MDA-MB-231 cells assessed as effect on lung at 10 to 30 mg/kg, po administered once a day via gavage for 21 days by H and E staining based analysis; format: organism-based; conditions: in vivo, 504 h, dose 10-30 mg/kg, time 21 day
[28] = Toxicity in BALB/c athymic nude mouse xenografted with human MDA-MB-231 cells assessed as effect on kidney at 10 to 30 mg/kg, po administered once a day via gavage for 21 days by H and E staining based analysis; format: organism-based; conditions: in vivo, 504 h, dose 10-30 mg/kg, time 21 day
MDA-MB-435 = assay: cells; conditions: Homo sapiens, MDA-MB-435, 72 h
Description: Antiproliferative activity against human MDA-MB-435 cells assessed as inhibition of cell growth incubated for 72 hrs by MTT assay

KYSE-150 cell line = assay: cells; conditions: Homo sapiens, KYSE-150, 72 h
Description: Antiproliferative activity against human KYSE-150 cells assessed as inhibition of cell growth incubated for 72 hrs by MTT assay

in vitro = conditions: human, HUVEC cells
Description: Cytotoxicity against HUVEC cells assessed as inhibition of cell growth incubated for 72 hrs by MTT assay

- remaining at 0.25 h, 1 µM [15]: 63.5%
- remaining at 0.75 h, 1 µM [16]: 33.8%
- remaining at 0.5 h, 1 µM [17]: 18.6%
- remaining at 0.75 h, 1 µM [18]: 9.41%
- remaining at 0.25 h, 1 µM [19]: 27.2%
- remaining at 0.5 h, 1 µM [20]: 8.63%
- half-life at 1 µM [21]: 41.4 min
- CLint scaled at 1 µM [22]: 42 mL/min/kg
- half-life at 1 µM [23]: 15.9 min
- half-life at 1 µM [24]: 12.9 min
- CLint scaled at 1 µM [25]: 424 mL/min/kg
- IC50 (MDA-MB-435): 9.17 µM
- IC50 (KYSE-150 cell line): 1.93 µM
- IC50 at 72 h (in vitro): 82.1 µM
SMILES: C=CC(=O)Nc1ccc(Cn2cnc3c(-c4cc(OC)cc(OC)c4)ncnc32)cc1
- Activity (MDA-MB-231 [1]): 73.78%
- Activity (MDA-MB-231 [2]): 10.73%
- Activity (MDA-MB-231 [3]): 26.3%
- viability at 5 µM (MDA-MB-231 [4]): 47.8%
- Activity (MDA-MB-231 [5]): 14.25%
- Activity (MDA-MB-231 [6]): 3.01%
- viability at 10 µM (MDA-MB-231 [7]): 37.2%
- Activity (MDA-MB-231 [8]): 15.73%
- Activity (MDA-MB-231 [9]): 1.66%
- Activity (MDA-MB-231 [10]): 45.4%
- inhibition at 5 µM (MDA-MB-231 [11]): 82%
- Activity (MDA-MB-231 [12]): Dose-Dependent Effect
- Activity (MDA-MB-231 [13]): Dose-Dependent Effect
- Activity (MDA-MB-231 [14]): inactive
- Activity [26]: Non-Toxic
- Activity [27]: Non-Toxic
- Activity [28]: Non-Toxic
